Experimental data reported in paper PMC8645997, “Population Pharmacokinetics of Polymyxin B in Obese Patients for Resistant Gram-Negative Infections” (Frontiers in Pharmacology, 2021).
Where a SMILES comes first, the peptide text is derived from it. Bridges are numbered along the chain shown (N, C = ends). [ ]: non-standard residue; d: D form. The star is where a group is joined. X1 = CC[C@H](C)CCCCC(=O)*; Dab = NCC[C@H](N)C(=O)O

Columns and labels:
[1] = intermediate to high protein binding; ref Sandri et al., 2013; Abodakpi et al., 2015; Avedissian et al., 2019; cited from earlier work
Excerpt: Obesity can cause related pathophysiological changes that could theoretically alter the PK characteristic of drugs, such as increased Vd, altered hepatic metabolism, renal CL, and protein binding. An understanding of how the Vd of a drug changes in obesity is critical because this parameter determines loading-dose selection ([Hanley et al., 2010]). Vd is affected by physicochemical property (lipophilicity or hydrophilicity), plasma protein binding rate, and tissue blood flow ([Al-Dorzi et al., 2014]; [Polso et al., 2014]). Hydrophilic drugs typically have a low Vd, poor tissue penetration, les ...

[2] = daily dose ≥250 mg; 151 patients; 95% CI 1.15–16.25, p = 0.03; ref Nelson et al., 2015; cited from earlier work
Experimental: From a toxicology perspective, the use of TBW-based dosing in obese patients can lead to polymyxin B overexposure and risk of acute kidney injury (AKI). In a retrospective study of 151 patients, Nelson et al. discovered that a daily dose ≥250 mg was an independent predictor of nephrotoxicity (OR 4.32, 95% CI 1.15–16.25, p = 0.03) in multivariate analysis ([Nelson et al., 2015]). […] These studies raised an important point abo ...

[3] = cited from earlier work
Excerpt: As a weight-based dosing antibiotic with a narrow therapeutic window, polymyxin B regimen in obese patients is particularly concerning. The present study developed a two-compartment model to describe the population PK profile of polymyxin B in obese patients. […] In terms of V and V2 estimates, the values varied widely between studies ([Avedissian et al., 2019]). Compared with the PK parameters reported by our group and Sandri et al, the typical V value (11.24 L, Table 2) was higher than thos ... || Obesity can cause related pathophysiological changes that could theoretically alter the PK characteristic of drugs, such as increased Vd, altered hepatic metabolism, renal CL, and protein binding. An understanding of how the Vd of a drug changes in obesity is critical because this parameter determines loading-dose selection ([Hanley et al., 2010]). Vd is affected by physicochemical property (lipophilicity or hydrophilicity), plasma protein binding rate, and tissue blood flow ([Al-Dorzi et al., 2014]; [Polso et al., 2014]). Hydrophilic drugs typically have a low Vd, poor tissue penetration, les ...

[4] = Population PK modeling of polymyxin B plasma concentrations in obese patients (two-compartment model, Phoenix NLME); type: in vivo, human
Experimental: This retrospective observational study was performed in the First Affiliated Hospital of Zhengzhou University between April 2018 and March 2021. The inclusion criteria for subjects were as follows: 1) patients ≥18 years old; 2) body mass index (BMI) ≥ 30; 3) patients had received intravenous polymyxin B (sulfate; polymyxin B for injection, Shanghai First Biochemical Pharmaceutical Co., Ltd.) for MDR Gram-negative infections; 4) blood sampling at steady state for therapeutic drug monitoring (TDM) was available. Subjects were excluded if 1) patients with continuous renal replacement therapy (CRRT) or extracorporeal membrane oxygenation (ECMO); 2) concentrations were below the lower limit of quantitation. The study protocols were approved by Zhengzhou University Medical Research and Ethics Committee (2021-KY-0441).
Polymyxin B was given to all patients empirically with a 100–200 mg loading dose and a 50–100 mg maintenance dose twice daily. The routine infusion time was at least 1 hour. Polymyxin B treatment, including dosage, infusion time, and treatment course, was determined by their medical teams. Sampling procedures included the following two categories.
From April 2018 to May 2019, 4-7 blood samples (mainly C0h, C1h, C1.5h, C2h, C4h, C6h, and C8h) were collected on day 4 to calculate the area under the concentration across 12 h at steady state (AUCss,12h). From June 2019 to March 2021, according to our previous study, a 2-point model using the limited sampling strategy was a practical approach to estimating polymyxin B AUCss,12h. Therefore, two blood samples (C0h and C2h) were collected. The infusion time was 1 hour ([Wang et al., 2020c]).
Blood samples were immediately centrifuged at 3,500 × g for 10 min. The supernatant was collected and then stored at −80°C until analysis. Polymyxin B concentrations (i.e., the polymyxin B1 concentration plus the polymyxin B2 concentration) were analyzed using a validated high-performance liquid chromatography-mass spectrometry method published by our laboratory ([Wang et al., 2020b]). As previously reported, the assay was linear over 0.2–10.0 μg/ml for polymyxin B1 and 0.05–2.5 μg/ml for polymyxin B2. The intra- and inter-batch assay precision (RSD) ranged from 0 to 13.93% for quality control samples, and their corresponding accuracy (% relative error) ranged from −11.56 to 11.13% ([Wang et al., 2020b]). Since polymyxin B1 and B2 had similar structures, molecular weight, pharmacological activities, and pharmacokinetic characteristics, the plasma concentration of polymyxin B was summed to derive the total polymyxin B1 and B2 concentrations ([Tam et al., 2011]; [Manchandani et al., 2016]).
Population PK modeling process was performed with the Phoenix® NLME software (v7.0, Pharsight, Mountain View, CA, USA). In brief, different PK models (one-, two-, or three-compartment models) were compared using the first-order conditional estimation-extended least-squares (FOCE ELS) method. The inter-individual variability (IIV) of PK parameters was assumed by additive, proportional, or mixed (additive plus proportional) models. The coefficient of variation (CV), the distribution of residuals in diagnostic plots, and the likelihood ratio test (-2 loglikelihood; -2LL) were used to evaluate the model. Following the basic structural modeling step, a stepwise process was used to consider several covariates, including age, TBW, BMI, IBW, ABW, sex, SOFA score, CrCL, adjusted CrCL, ideal CrCL, serum creatinine, and GFR. A drop >6.63 (p = 0.01) of objective function value (OFV; -2LL) for forward addition and an increase of OFV >10.83 (p = 0.001) for backward elimination were the inclusion criteria for covariates. After covariate selection, based on the scatter plot and ΔOFV (a drop of OFV >6.63), the relevant correlation between random effects was also explored.
For model evaluation, the goodness-of-fit (GOF) plots were used to evaluate the reliability of the final model. […]

[5] = obese patients, n = 26, iv, steady state

Compound: CC[C@H](C)CCCCC(=O)N[C@@H](CCN)C(=O)N[C@H](C(=O)N[C@@H](CCN)C(=O)N[C@H]1CCNC(=O)[C@H]([C@@H](C)O)NC(=O)[C@H](CCN)NC(=O)[C@H](CCN)NC(=O)[C@H](CC(C)C)NC(=O)[C@@H](Cc2ccccc2)NC(=O)[C@H](CCN)NC1=O)[C@@H](C)O [polymyxin B] (X1-[Dab]T[Dab][Dab][Dab][dF]L[Dab][Dab]T; lactam 4-C)
- protein binding [1]: 58–90%
- OR of nephrotoxicity (independent predictor, multivariate analysis) [2]: 4.32
- Vd ([3]; low to intermediate Vd, ref Sandri et al., 2013, Abodakpi et al., 2015, Avedissian et al., 2019): 6.3 to 47.2 L
- typical CL value, previous reports ([3]; previous reports, ref Avedissian et al., 2019): 1.87 to 2.63 L/h
- V2 value, reported previously ([3]; ref Sandri et al., 2013, Wang et al., 2020c, 2021): 10.57 to 11.97 L
- typical V value, reported previously ([3]; reported by our group and Sandri et al, ref Sandri et al., 2013, Wang et al., 2020c, Wang et al., 2021): 6.22 to 6.98 L
- tvCL, bootstrap median ([4]; bootstrap, 1,000 samples): 2.73
- tvQ, bootstrap median ([4]; bootstrap, 1,000 samples): 7.71
- tvV2, bootstrap median ([4]; bootstrap, 1,000 samples): 40.46
- tvV, bootstrap median ([4]; bootstrap, 1,000 samples): 11.46
- tvV, typical value of central compartment distribution volume (V), final model estimate ([4]; obese patients (BMI >=30), n = 26, 142 plasma concentrations, iv, steady state): 11.24 L
- tvCL, central compartment clearance, final model estimate [4, 5]: 2.86 L/h
- tvQ, inter-compartmental clearance, final model estimate [4, 5]: 7.36
- tvV2, peripheral compartment distribution volume, final model estimate [4, 5]: 39.70 L
